Test results: patent publication US11304949B2, “Treatment of hidradenitis suppurativa using JAK inhibitors” (Incyte Corporation, priority 2018, dated 2022)

How the values were obtained:
[1] = system: human JAK1 (a.a. 837-1142); test: In vitro JAK kinase assay (HTRF), JAK1; type: biochemical; conditions: IC50 ratio at 1 mM ATP
[2] = target: human JAK1 (a.a. 837-1142) (Homo sapiens, UniProt P23458); test: In vitro JAK kinase assay (HTRF), JAK1; type: biochemical; conditions: 1 mM ATP
[3] = system: Transformed human keratinocyte (HaCaT) cells stimulated with TNFα and IFNγ; test: JAK inhibitors in TNFα/IFNγ stimulated keratinocytes, inflammatory mediators in media (ProCarta Multiplex Immunoassay); conditions: mean ± 1 standard error
[4] = system: Transformed human keratinocyte (HaCaT) cells stimulated with TNFα and IFNγ; test: JAK inhibitors in TNFα/IFNγ stimulated keratinocytes, gene expression (QuantiGene Plex); conditions: 24 hours, normalized to HPRT1, mean ± standard error
[5] = TNFα (25 ng/mL) and IFNγ (25 ng/mL) stimulation, drug 25 nM
[6] = TNFα (25 ng/mL) and IFNγ (25 ng/mL) stimulation, drug 50 nM
[7] = TNFα (25 ng/mL) and IFNγ (25 ng/mL) stimulation, drug 100 nM
[8] = TNFα (25 ng/mL) and IFNγ (25 ng/mL) stimulation, drug 200 nM
[9] = TNFα (25 ng/mL) and IFNγ (25 ng/mL), drug 25 nM
[10] = TNFα (25 ng/mL) and IFNγ (25 ng/mL), drug 50 nM
[11] = TNFα (25 ng/mL) and IFNγ (25 ng/mL), drug 100 nM
[12] = TNFα (25 ng/mL) and IFNγ (25 ng/mL), drug 200 nM

## N#CC[C@]1(n2cc(-c3ncnc4[nH]ccc34)cn2)C[C@H](N2CCC(Oc3cc(CN4CCC[C@@H]4CO)cc(C(F)(F)F)n3)CC2)C1 [Compound 13, {trans-3-(4-{[4-{[(2R)-2-(hydroxymethyl)pyrrolidin-1-yl]methyl}-6-(trifluoromethyl)pyridin-2-yl]oxy}piperidin-1-yl)-1-[4-(7H-pyrrolo[2,3-d]pyrimidin-4-yl)-1H-pyrazol-1-yl]cyclobutyl}acetonitrile]
[1]
  JAK2/JAK1: >10
[2]
  IC50: < 10 nM

## N#CCC1(n2cc(-c3ncnc4[nH]ccc34)cn2)CN(C2CCN(C(=O)c3ccnc(C(F)(F)F)c3F)CC2)C1 [Compound 1, {1-{1-[3-Fluoro-2-(trifluoromethyl)isonicotinoyl]piperidin-4-yl}-3-[4-(7H-pyrrolo[2,3-d]pyrimidin-4-yl)-1H-pyrazol-1-yl]azetidin-3-yl}acetonitrile]
[1]
  JAK2/JAK1: >10
[2]
  IC50: < 10 nM
[3]; [5]
  IL-1α concentration in media: 7.34 ± 0.31 pg/mL
  IL-6 concentration in media: 749.64 ± 32.94 pg/mL
  IP-10/CXCL10 concentration in media: 4068.98 ± 507.12 pg/mL
  MIP1α concentration in media: 103.81 ± 3.29 pg/mL
  RANTES concentration in media: 203.77 ± 12.55 pg/mL
[3]; [6]
  IL-1α concentration in media: 7.06 ± 0.37 pg/mL
  IL-6 concentration in media: 674.21 ± 27.15 pg/mL
  IP-10/CXCL10 concentration in media: 3872.74 ± 295.01 pg/mL
  MIP1α concentration in media: 100.64 ± 4.66 pg/mL
  RANTES concentration in media: 198.35 ± 15.1 pg/mL
[3]; [7]
  IL-1α concentration in media: 7 ± 0.41 pg/mL
  IL-6 concentration in media: 643.8 ± 27.14 pg/mL
  IP-10/CXCL10 concentration in media: 4050.7 ± 471.31 pg/mL
  MIP1α concentration in media: 91.52 ± 5.05 pg/mL
  RANTES concentration in media: 194.21 ± 12.67 pg/mL
[3]; [8]
  IL-1α concentration in media: 6.16 ± 0.35 pg/mL
  IL-6 concentration in media: 568.73 ± 24.74 pg/mL
  IP-10/CXCL10 concentration in media: 4071.78 ± 411.22 pg/mL
  MIP1α concentration in media: 83.1 ± 2.77 pg/mL
  RANTES concentration in media: 183.18 ± 13.92 pg/mL
[3]; no stimulation, drug 200 nM
  IL-1α concentration in media: 0.29 ± 0.03 pg/mL
  IL-6 concentration in media: 28.49 ± 2.89 pg/mL
  IP-10/CXCL10 concentration in media: 19.83 ± 0.40 pg/mL
  MIP1α concentration in media: 2.75 ± 0.26 pg/mL
  RANTES concentration in media: 8.42 ± 0.51 pg/mL
[4]; [9]
  IL-1α MFI: 1288.02 ± 20
  IL-6 MFI: 130.24 ± 3.84
  JAK1 MFI: 216.23 ± 6.41
  JAK2 MFI: 109.39 ± 2.8
  JAK3 MFI: 0.84 ± 0.12
  STAT1 MFI: 2868.69 ± 202.69
  STAT3 MFI: 1466.73 ± 66.75
  STAT4 MFI: 6.00 ± 0.46
  STAT5A MFI: 23.69 ± 1.63
  STAT6 MFI: 1004.82 ± 23.76
  TYK2 MFI: 292.92 ± 7.99
[4]; [10]
  IL-1α MFI: 1258.76 ± 23.63
  IL-6 MFI: 122.69 ± 4.36
  JAK1 MFI: 210.42 ± 10.89
  JAK2 MFI: 101 ± 2.26
  JAK3 MFI: 0.83 ± 0.15
  STAT1 MFI: 2862.58 ± 163.98
  STAT3 MFI: 1437.28 ± 60.69
  STAT4 MFI: 6.22 ± 0.42
  STAT5A MFI: 22.32 ± 2.16
  STAT6 MFI: 990.05 ± 21.06
  TYK2 MFI: 287.31 ± 11.08
[4]; [11]
  IL-1α MFI: 1162.35 ± 23.34
  IL-6 MFI: 111.07 ± 4.74
  JAK1 MFI: 205.03 ± 11.49
  JAK2 MFI: 94.5 ± 2.65
  JAK3 MFI: 0.92 ± 0.13
  STAT1 MFI: 2790.32 ± 176.4
  STAT3 MFI: 1373.34 ± 55.51
  STAT4 MFI: 6.21 ± 0.48
  STAT5A MFI: 20.87 ± 2.1
  STAT6 MFI: 987.64 ± 15.75
  TYK2 MFI: 284.15 ± 9.62
[4]; [12]
  IL-1α MFI: 1126.94 ± 26.22
  IL-6 MFI: 93.03 ± 3.25
  JAK1 MFI: 195.97 ± 10.45
  JAK2 MFI: 89.16 ± 3.43
  JAK3 MFI: 0.79 ± 0.15
  STAT1 MFI: 2857.2 ± 174.57
  STAT3 MFI: 1400.77 ± 58.44
  STAT4 MFI: 6.27 ± 0.56
  STAT5A MFI: 19.2 ± 1.94
  STAT6 MFI: 985.17 ± 29.31
  TYK2 MFI: 277.52 ± 8.67
[4]; no stimulation, drug 200 nM
  IL-1α MFI: 85.16 ± 6.50
  IL-6 MFI: 4.97 ± 0.36
  JAK1 MFI: 171.53 ± 9.49
  JAK2 MFI: 25.21 ± 1.12
  JAK3 MFI: 0.63 ± 0.10
  STAT1 MFI: 535.07 ± 22.13
  STAT3 MFI: 732.19 ± 23.03
  STAT4 MFI: 4.01 ± 0.45
  STAT5A MFI: 1.44 ± 0.41
  STAT6 MFI: 740.11 ± 34.98
  TYK2 MFI: 217.28 ± 10.09

## C[C@H](NC(=O)c1cc(F)c(N2CC(CC#N)(n3cc(-c4ncnc5[nH]ccc45)cn3)C2)cc1F)C(F)(F)F [Compound 16, 4-{3-(cyanomethyl)-3-[4-(7H-pyrrolo[2,3-d]pyrimidin-4-yl)-1H-pyrazol-1-yl]azetidin-1-yl}-2,5-difluoro-N-[(1S)-2,2,2-trifluoro-1-methylethyl]benzamide]
[1]
  JAK2/JAK1: >10
[2]
  IC50: < 10 nM

## N#CC[C@]1(n2cc(-c3ncnc4[nH]ccc34)cn2)C[C@H](N2CCN(C(=O)c3ccnc(C(F)(F)F)n3)CC2)C1 [Compound 10, [trans-1-[4-(7H-pyrrolo[2,3-d]pyrimidin-4-yl)-1H-pyrazol-1-yl]-3-(4-{[2-(trifluoromethyl)pyrimidin-4-yl]carbonyl}piperazin-1-yl)cyclobutyl]acetonitrile]
[1]
  JAK2/JAK1: >10
[2]
  IC50: < 10 nM

## N#CCC1(n2cc(-c3ncnc4[nH]ccc34)cn2)CN(C2CCN(C(=O)Nc3ccc(F)cc3C(F)(F)F)CC2)C1 [Compound 2, 4-{3-(Cyanomethyl)-3-[4-(7H-pyrrolo[2,3-d]pyrimidin-4-yl)-1H-pyrazol-1-yl]azetidin-1-yl}-N-[4-fluoro-2-(trifluoromethyl)phenyl]piperidine-1-carboxamide]
[1]
  JAK2/JAK1: >10
[2]
  IC50: < 10 nM

## C[C@@H](O)CNCc1cc(OC2CCN([C@H]3C[C@](CC#N)(n4cc(-c5ncnc6[nH]ccc56)cn4)C3)CC2)nc(C(F)(F)F)c1 [Compound 24, {trans-3-(4-{[4-({[(2R)-2-hydroxypropyl]amino}methyl)-6-(trifluoromethyl)pyridin-2-yl]oxy}piperidin-1-yl)-1-[4-(7H-pyrrolo[2,3-d]pyrimidin-4-yl)-1H-pyrazol-1-yl]cyclobutyl}acetonitrile]
[1]
  JAK2/JAK1: >10
[2]
  IC50: < 10 nM

## N#CCC(C1CCN(c2cccc(Cl)n2)C1)n1cc(-c2ncnc3[nH]ccc23)cn1 (single isomer, unassigned) [Compound 6, 3-[1-(6-chloropyridin-2-yl)pyrrolidin-3-yl]-3-[4-(7H-pyrrolo[2,3-d]pyrimidin-4-yl)-1H-pyrazol-1-yl]propanenitrile]
[1]
  JAK2/JAK1: >10
[2]
  IC50: < 10 nM

## N#CCC(CN1CCN(C(=O)c2ccc(C#N)cc2F)CC1)n1ccc(-c2ncnc3[nH]ccc23)c1 (centres unmarked) [Compound 9, 4-[(4-{3-cyano-2-[3-(7H-pyrrolo[2,3-d]pyrimidin-4-yl)-1H-pyrrol-1-yl]propyl}piperazin-1-yl)carbonyl]-3-fluorobenzonitrile]
[1]
  JAK2/JAK1: >10
[2]
  IC50: < 10 nM

## N#CCC1(n2cc(-c3ncnc4[nH]ccc34)cn2)CN([C@H]2CC[C@@H](Oc3cc(CN4CC[C@@H](O)C4)cc(C(F)(F)F)n3)CC2)C1 [Compound 21, {1-(cis-4-{[4-{[(3R)-3-hydroxypyrrolidin-1-yl]methyl}-6-(trifluoromethyl)pyridin-2-yl]oxy}cyclohexyl)-3-[4-(7H-pyrrolo[2,3-d]pyrimidin-4-yl)-1H-pyrazol-1-yl]azetidin-3-yl}acetonitrile]
[1]
  JAK2/JAK1: >10
[2]
  IC50: < 10 nM
